Experimental data: ChEMBL document CHEMBL1148875, “Benzopyrans as selective estrogen receptor beta agonists (SERBAs). Part 2: structure-activity relationship studies on the benzopyran scaffold” (Bioorg Med Chem Lett, 2007)
pKi: −log10 of the molar value.

Columns and labels:
Estrogen receptor beta = Estrogen receptor beta (Homo sapiens, UniProt Q92731); experiment: Binding affinity to human ERbeta
Estrogen receptor = biological target: T1, Estrogen receptor (Homo sapiens, UniProt P03372); experiment: Binding affinity to human ERalpha
T1 sequence (P03372 whole entry): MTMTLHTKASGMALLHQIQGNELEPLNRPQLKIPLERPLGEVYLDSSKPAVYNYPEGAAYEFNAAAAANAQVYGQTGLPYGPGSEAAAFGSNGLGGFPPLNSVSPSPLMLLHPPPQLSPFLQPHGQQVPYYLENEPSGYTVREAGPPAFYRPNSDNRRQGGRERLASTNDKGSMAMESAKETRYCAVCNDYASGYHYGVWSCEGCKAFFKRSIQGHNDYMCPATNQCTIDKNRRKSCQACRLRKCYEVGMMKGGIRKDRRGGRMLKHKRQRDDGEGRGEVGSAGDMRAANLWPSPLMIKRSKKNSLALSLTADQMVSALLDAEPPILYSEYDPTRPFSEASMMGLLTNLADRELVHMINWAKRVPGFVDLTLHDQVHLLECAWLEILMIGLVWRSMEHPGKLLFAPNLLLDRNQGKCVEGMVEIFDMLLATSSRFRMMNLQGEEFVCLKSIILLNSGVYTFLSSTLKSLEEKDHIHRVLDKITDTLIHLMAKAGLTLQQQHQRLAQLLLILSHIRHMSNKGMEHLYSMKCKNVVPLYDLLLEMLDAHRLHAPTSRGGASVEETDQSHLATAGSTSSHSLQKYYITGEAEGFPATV

Chain of Estrogen receptor beta (Q92731 whole entry): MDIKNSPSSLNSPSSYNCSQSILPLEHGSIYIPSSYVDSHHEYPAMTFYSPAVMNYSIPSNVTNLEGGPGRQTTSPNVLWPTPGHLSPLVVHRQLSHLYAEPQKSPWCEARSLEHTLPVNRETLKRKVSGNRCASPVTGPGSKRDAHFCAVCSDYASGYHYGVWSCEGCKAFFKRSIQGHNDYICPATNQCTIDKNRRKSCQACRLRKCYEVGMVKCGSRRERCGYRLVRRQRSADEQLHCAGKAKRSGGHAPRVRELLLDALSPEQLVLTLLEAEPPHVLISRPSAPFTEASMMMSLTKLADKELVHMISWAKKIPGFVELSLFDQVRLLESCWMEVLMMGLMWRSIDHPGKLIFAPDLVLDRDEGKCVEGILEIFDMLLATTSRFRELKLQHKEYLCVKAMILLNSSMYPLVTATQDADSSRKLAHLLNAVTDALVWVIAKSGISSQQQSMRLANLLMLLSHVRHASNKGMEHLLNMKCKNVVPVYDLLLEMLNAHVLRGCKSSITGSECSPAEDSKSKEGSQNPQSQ

Row | SMILES | pKi (Estrogen receptor) | pKi (Estrogen receptor beta)
1 | Oc1ccc([C@H]2Oc3ccc(O)cc3[C@H]3CCCC[C@H]32)cc1 | 8.54 | 9.20
2 | Oc1ccc([C@H]2Oc3ccc(O)cc3[C@H]3CCCCC[C@H]32)cc1 | 8.21 | 9.06
3 | Oc1ccc([C@H]2Oc3cccc(O)c3[C@H]3CCC[C@H]32)cc1 | 9.46 | 9.18
4 | Oc1cccc([C@H]2Oc3ccc(O)cc3[C@H]3CCC[C@H]32)c1 | 7.19 | –
5 | Oc1ccc([C@@H]2CCc3cc(O)ccc3O2)cc1 | – | 7.68
6 | Oc1ccc([C@H]2Oc3cc(O)ccc3[C@H]3CCC[C@H]32)cc1 | 7.39 | 7.72

Now from value to compound, other results behind:

Row | pKi (Estrogen receptor) | SMILES | pKi (Estrogen receptor beta)
7 | 7.40 | Oc1ccc([C@H]2Oc3ccccc3[C@H]3CCC[C@H]32)cc1 | 7.66
8 | 6.57 | Oc1ccc2c(c1)[C@H]1CCC[C@H]1[C@@H](c1ccccc1)O2 | –
